These results are taken from patent US20220233556A1, “COMPOSITIONS AND METHODS FOR TREATING OPHTHALMIC CONDITIONS” (Medicon Pharmaceuticals, Inc., priority 2017, published 2022).

SMILES strings stand for the structures. Where two headings read alike, the source gives them in different places.

The nature of series [1]: PS biodistribution after topical alternative sodium alginate-based in-situ gel. Type of series: in vivo, New Zealand white rabbits. The following applies: New Zealand white, rabbit, 3 % PS in formulation. How it is done:
Composition: 3% PS, 1.5% sodium alginate, 15% Tween 80, 10% (2-hydroxypropyl)-β-cyclodextrin, 10% polyethylene glycol 400 (PEG400), 5% polyoxyl stearate.
Preparation Method: A sodium alginate solution was prepared by adding an appropriate amount of sodium alginate to deionized water and heating the mixture to 90° C. with fast stirring (500 rpm). Once sodium alginate was completely dissolved, the solution was filtered through a 0.22 μm filter. Then, PS and additional excipients were added to achieve the above concentrations and stirred at 50° C. at 500 rpm until complete dissolution.
Results: PS in this formulation was administered topically to the eyes of New Zealand white rabbits and its biodistribution was determined as above.

Series [2] has as its system PGE2. Briefly: PGE2 levels in tears and cornea of rabbits (ELISA). Type of series: in vivo. The procedure:
FIGS. 9A and 9B illustrate that PS preserves the levels of PGE2 in tears and the cornea. In FIG. 9A, PGE2 levels were determined by ELISA in tears collected on day 7 from naïve rabbits and rabbits with Con A-induced DED treated for 1 week with vehicle or PS. In FIG. 9B, PGE2 levels were further examined. Upper panel: PGE2 levels in the tears of naïve rabbits and rabbits with Con A-induced DED treated for 1 h with PS or ketorolac as in Methods. Lower panel: PGE2 levels in the corneal tissue of naïve rabbits and rabbits with Con A-induced DED treated for 1 week with vehicle or PS or ketorolac or diclofenac. n=8 eyes/group. Values=mean±SEM.
It was determined that the levels of PGE2 in rabbit tears in three groups of rabbits, naïve and those with Con A-induced DED that were treated for 1 week either with PS or vehicle.
In an acute experiment, administered once topically to the eyes of four groups of rabbits with Con A-induced DED was one of the following: vehicle, PS, ketorolac or diclofenac; the latter two are NSAIDs used for the treatment of ocular inflammation and pain. It was determined that the levels of PGE2 in the cornea of these rabbits obtained 1 h later as well as in the corneas of naïve rabbits.

Series [3] has as its system NF-κB. Briefly: NF-κB activation in the ILG of rabbits with DED. Type of series: in vivo. The following applies: 1 week of treatment, vs vehicle. How it is done:
(§1) FIGS. 6A and 6B illustrate that PS suppresses the activation of NF-κB and MAPKs. In FIG. 6A, NF-κB activation was determined by EMSA in cultured human conjunctival cells stimulated with TNFα (top) and in the ILG of rabbits with Con A-induced DED and treated for one week with either vehicle or PS (bottom). In FIG. 6B, immunoblots detecting the activation of MAPKs by phosphorylation in cultured human conjunctival cells treated with PS at the indicated concentrations for 3.5 h. Loading control: β-actin.
Human conjunctival cells were treated with various concentrations of PS. Five hours later, TNF-α was added to the culture medium to a final concentration of 10 ng/ml and the status of NF-κB activation was determined by EMSA 1 h later. […] Similarly, after 1 week of treatment, PS suppressed NF-κB activation in the ILG of rabbits with DED compared to those treated with vehicle.

The test system of series [4] is JNK and Erk1/2. Put plainly: MAPK activation by phosphorylation (immunoblots) in human conjunctival cells. The following applies: PS 3.5 h. Type of series: cell-based. How it is done: as §1
The conjunctiva cells used express only the JNK and Erk1/2 pathways.

The subject of series [5] is NF-κB. Put plainly: NF-κB activation by EMSA in TNF-α-stimulated human conjunctival cells. Conditions: PS 5 h, then TNF-α 10 ng/ml, EMSA 1 h later. The format is cell-based. How it is done:
as §1
The Mechanism of Action of PS in Dry Eye. Tissue culture, animal and human studies have established inflammation as the core mechanism of DED. To determine the mechanism of action of PS in DED the response to PS of several factors known to play an important role in the inflammation associated with DED was explored. They include NF-κB; the cytokines TGF-β, IL-1β, IL-6 and IL-8; the collagenases MMP-1 and MMP-9; and PGE2. In these studies human conjunctival epithelial cells were used, the Wong-Kilbourne derivative of Chang conjunctival cells (clone 1 to 5c-4l American Type Culture Collection (Manassas, Va.) certified cell line, 20.2).
Human conjunctival cells were treated with various concentrations of PS. Five hours later, TNF-α was added to the culture medium to a final concentration of 10 ng/ml and the status of NF-κB activation was determined by EMSA 1 h later. […]

In series [6] the test system is uveitis. Briefly: LPS-induced uveitis in rats. Type of series: in vivo. The following applies: PS 3% once intravitreally, 48 h. How it is done:
Uveitis was produced in rats by injecting LPS 75 ng into the footpad of rats. The rats were injected once intravitreally with 2 μPS 3% or vehicle. A control group included naïve rats (not LPS, no treatment). Forty-eight hours later we examined their eyes, sampled the aqueous humor and after euthanizing them we excised, fixed and stained with H&E ocular tissues following standard protocols. […] These findings document a very strong and unexpected therapeutic effect of PS against uveitis.

Series [7] in a line: PS levels in ocular tissues after topical gellan gum-based in-situ gel. Type of series: in vivo, New Zealand white rabbits. Conditions: New Zealand white, rabbit, gellan gum 0.5% in-situ gel, 2.4~3% PS, eye drops. The procedure: Composition: 2.4˜3% PS; 0.5% Gellan gum; 5% Vitamin E TPGS; 10% (2-hydroxypropyl)-β-cyclodextrin. Preparation Method: A Gellan gum solution was prepared by adding a certain amount of gellan gum to deionized water and heating the mixture to 90° C. with fast stirring (500 rpm). Once completely dissolved, the solution was filtered through a 0.22 μm filter. Then, PS and additional excipients were added to the system to achieve the above concentrations and stirred at 50° C. at 500 rpm for 30 minutes to allow complete dissolution.
Results: The above PS formulation was administered topically as eye drops to the eyes of New Zealand white rabbits. The levels of PS in ocular tissues at 2 h later were determined by HPLC.

Where [8] appears, read: aqueous humor, read-out: PS in Aqueous humor.
[9] abbreviates: conjunctiva, read-out: PS in Conjunctiva.

As to `CCOP(=O)(OCC)OCCCCOC(=O)CC1=C(C)/C(=C/c2ccc([S+](C)[O-])cc2)c2ccc(F)cc21` (stereo not shown) [PS, phosphosulindac], the concentration at 1 h in series [1] (setting [8]) was found to be 400 nM; in series [1] (setting [9]), 4900 nM; in series [1] (cornea, read-out: PS in Cornea), 17800 nM. For the same compound, the concentration at 3 h in series [1] (setting [9]) came out at 2100 nM; in series [1] (cornea, read-out: PS in Cornea) it was 5000 nM. For the same compound, the concentration at 5 h came to 2300 nM in series [1] (setting [9]) and 1000 nM in series [1] (cornea, read-out: PS in Cornea). This compound returned a concentration at 8 h in series [1] (conjunctiva, 8 h) of 1300 nM. In addition, in series [2] (rabbits with Con A-induced DED treated 1 week), the “PGE2 levels in tears” value is “slightly lower than (but not significantly different from) those of naïve rabbits”. In series [2] (rabbits with Con A-induced DED, administered once topically, 1 h later), the “PGE2 levels in the cornea” value is “no different than those of vehicle-treated and naïve rabbits”. For the same compound, the “NF-κB activation in the ILG” value in series [3] is listed as “suppressed”. The “activation by phosphorylation of JNK and Erk1/2” value in series [4] was “profoundly suppressed”. The “activation of NF-κB” value in series [5] is “significantly suppressed”. The compound also had a clinical score in series [6] (mean±SEM, vehicle 3.3±0.2) of 1.8±0.2. In addition, the “inflammatory cells in the tissues of the anterior chamber” value in series [6] (vehicle 203±39) came out at 12±2.3. Besides, the number of cells in series [6] (aqueous humor, vehicle 543±132) came out at 164±31. The concentration at 2 h in series [7] (setting [8]) came to 1200 nM; in series [7] (setting [9]), 24100 nM; in series [7] (cornea, read-out: PS in Cornea), 72000 nM.
